Laboratory results reported in patent US5225436A, “Aryl substituted naphthalene derivatives” (Schering Corporation, priority 1991, dated 1993).
Where two headings read alike, the source gives them in different places.

How the values were obtained:
Format in all cases: cell-based
[1] = tested on: SRS-A / leukotriene release from antigen-challenged, sensitized guinea pig lung; experiment: Inhibition of SRS-A (leukotriene) release from antigen-challenged, sensitized guinea pig lung; set-up: inhibition: dose or concentration left out as unconfirmed; settings: Cavia porcellus; for inhibition: Dose 30 μm (μM)
Text: The anti-allergy method of this invention is identified by tests which measure a compound's inhibition of leukotriene release in sensitized guinea pigs. Sensitized guinea pigs are killed by a blow to the head and the lungs removed and cleaned of visible connective tissue, trachea and large blood vessels. The lungs from individual animals are sliced into fragments approximately 1 mm in thickness using a McIlwain tissue chopper and then washed with oxygenated Tyrode's buffer. Weighed aliquots (approximately 400 mg wet weight) of lung are transferred into vials containing 2 ml of fresh Tyrode's solution (containing 10 mM cysteine) and incubated in the presence or absence of test compound for 12 min at 37° C. The tissues are then challenged with 20 μg ovalbumin/ml (final concentration) and incubated for 15 min. To measure leukotriene release, an aliquot of supernatant fluid is extracted with 4 volumes of 100% ethanol. After removal of the precipitated protein, the clear fluid is dried under a stream of N2 gas. The leukotriene content is measured by a radioimmunoassay using [^3 H]LTC4 and antiserum obtained from New England Nuclear. The cross-reactivity of the antiserum for LTD4 is 55%. Percent inhibition of lekotriene release is calculated by comparing for each lung the release in the presence of the test compound to that in the absence of test compound. Representative compounds of the invention at a relative dose of 50 μM of tissue are found to inhibit leukotriene release in the test procedure as indicated below in Table 1: […]

5-lipoxygenase [2] = molecular target: T1, 5-lipoxygenase (Homo sapiens, UniProt P09917); experiment: 5-Lipoxygenase assay with human neutrophils; settings: 5 min, Human PMN, dose 15 μm (μM)
T1 construct: Human polymorphonuclear leukocytes (neutrophils) were obtained from normal healthy volunteers; endogenous in cells; host or cells: human blood neutrophils from healthy volunteers
T1 sequence (P09917 1-674): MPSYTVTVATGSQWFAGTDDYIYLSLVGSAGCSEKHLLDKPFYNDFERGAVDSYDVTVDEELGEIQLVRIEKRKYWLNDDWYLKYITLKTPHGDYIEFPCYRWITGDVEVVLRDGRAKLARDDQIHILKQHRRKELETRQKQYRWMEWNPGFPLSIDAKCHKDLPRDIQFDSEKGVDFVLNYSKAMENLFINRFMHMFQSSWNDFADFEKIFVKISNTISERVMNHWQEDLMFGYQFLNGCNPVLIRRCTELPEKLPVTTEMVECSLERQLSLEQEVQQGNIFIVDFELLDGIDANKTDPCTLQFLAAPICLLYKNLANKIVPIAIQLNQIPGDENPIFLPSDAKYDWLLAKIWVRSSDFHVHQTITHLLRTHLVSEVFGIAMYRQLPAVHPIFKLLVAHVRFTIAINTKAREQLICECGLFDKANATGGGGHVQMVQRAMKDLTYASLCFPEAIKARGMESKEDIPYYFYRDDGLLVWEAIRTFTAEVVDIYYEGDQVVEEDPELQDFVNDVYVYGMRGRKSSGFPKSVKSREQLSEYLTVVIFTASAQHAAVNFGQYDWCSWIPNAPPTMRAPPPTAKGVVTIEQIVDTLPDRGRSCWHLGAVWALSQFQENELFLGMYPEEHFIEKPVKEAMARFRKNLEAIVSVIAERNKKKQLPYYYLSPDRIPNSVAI
Experimental: Human polymorphonuclear leukocytes (neutrophils) were obtained from normal healthy volunteers by venipuncture and collected with heparin anticoagulant. Neutrophils were isolated by Dextran/Ficol sedimentation as described (Billah et al., J. Biol. Chem. 260, 6899-6906 (1985)). In brief, 30 ml of blood was mixed with 5 ml of dextran (Sigma) solution and kept at 37° C. for 30 min. The upper white cell-rich layer was removed and 10 ml was layered on 9 ml of Ficol-Paque solution (Pharmacia) and centrifuged at 280 xg for 10 min. at 5° C. The supernatant was removed and the neutrophil pellet was resuspended in HEPES buffer containing 25 mM N-2-hydroxyethylpiperazine-N^1 -2-ethanesulfonic acid HEPES, 125 mM NaCl, 2.5 mM KCl, 0.7 mM MgCl2, […] 10 mM glucose at pH 7.4. The red cells in the suspension were lysed by hypotonic shock. The neutrophils were washed by centrifugation in HEPES buffer two times and finally resuspended at a concentration of 20×10^6 cells/ml in the presence of 1 mM CaCl2.
Neutrophils (0.2 ml of suspension) were preincubated with dimethylsulfoxide (DMSO) vehicle with or without test compound (1 ul) for 4 minutes then incubated for 5 minutes with [^14 C] arachidonic acid (Amersham, 59 Ci/mole) at a 9 uM final concentration, and the calcium ionophore A23187 (Calbiochem) at a 1 uM final concentration. These stimulants were added in 10 ul of water:ethanol (9:1). The reaction was stopped by addition of methanol (0.4 ml), and cellular debris was removed by centrifugation. Aliquots (100 ul) of the incubations were run on a Waters two pump HPLC system fitted with a DuPont Zorbax ODS, 5u, […] Reliance Cartridge column and C18 "Guard Pak". The column was initially eluted at 2 ml/min with 80% of the mixture water:methanol:acetic acid (46:54:0.08) containing 1 mM EDTA adjusted to pH 6.0 with ammonium hydroxide (Pump A) and 20% methanol (Pump B). At 10 minutes, a linear gradient to reach 100% methanol (Pump B) at 27 minutes was established. Between 27 and 28 minutes, methanol was exchanged for the initial eluting solvent and by 35 minutes the column had been reequilibrated for the next sample. The effluent was analyzed by a continuous flow radioactivity monitor (model ROMONA-D) interfaced with a Hewlett Packard Lab Automation System for quantitation of radioactive products. These were predominantly leukotriene B4 (LTB4) which eluted at 7 minutes, and 5-hydroxyeicosatetraenoic acid (5-HETE) which eluted at 20 minutes.

5-lipoxygenase [3] = molecular target: T2, 5-lipoxygenase (Mus musculus, UniProt P48999); experiment: 5-Lipoxygenase assay (murine mast cell clone MC-9); settings: MC9, 5 min, MC-9 cell
T2 construct: The IL-3-dependent murine mast cell clone, MC-9, was used to test the effects; endogenous in cells; host or cells: MC-9 (IL-3-dependent murine mast cell clone)
T2 sequence (P48999 1-674): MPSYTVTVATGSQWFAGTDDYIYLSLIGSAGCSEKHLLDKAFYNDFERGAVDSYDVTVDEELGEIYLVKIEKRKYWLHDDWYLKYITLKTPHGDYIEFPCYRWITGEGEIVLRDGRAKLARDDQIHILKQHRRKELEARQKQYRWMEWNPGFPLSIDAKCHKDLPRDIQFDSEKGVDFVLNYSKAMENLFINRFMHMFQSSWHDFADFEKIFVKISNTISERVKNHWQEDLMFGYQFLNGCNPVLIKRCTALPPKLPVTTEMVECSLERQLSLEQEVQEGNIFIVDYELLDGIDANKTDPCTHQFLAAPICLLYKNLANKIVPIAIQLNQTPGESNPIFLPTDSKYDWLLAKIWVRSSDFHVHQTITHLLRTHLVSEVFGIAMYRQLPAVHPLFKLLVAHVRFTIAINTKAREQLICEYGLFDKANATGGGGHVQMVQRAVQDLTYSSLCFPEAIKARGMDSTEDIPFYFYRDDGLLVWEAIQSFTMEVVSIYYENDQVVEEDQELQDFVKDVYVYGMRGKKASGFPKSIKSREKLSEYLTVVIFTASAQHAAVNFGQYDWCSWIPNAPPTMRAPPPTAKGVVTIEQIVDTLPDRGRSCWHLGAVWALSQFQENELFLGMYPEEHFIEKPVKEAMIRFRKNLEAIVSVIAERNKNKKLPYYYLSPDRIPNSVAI
Experimental: The IL-3-dependent murine mast cell clone, MC-9, was used to test the effects of representative compounds of the invention on lipoxygenase activity. The MC-9 cell line was grown in suspension culture (0.4 to 1.2×10^6 cells/ml) in RPMI 1640 medium (Gibco) with 10% fetal bovine serum (Hyclone) and 2-5% conconavalin-A conditioned supernatant (Musch et. al., (1985) Prostagandins 29, 405-4307. Cells were harvested, washed twice by centrifugation, and resuspended in a Ca^++ -free HEPES buffer (25 mM HEPES, 125 mM NaCl, 2.5 mM KCl 0.7 mM MgCl2, 0.5 mM EGTA and 10 mM glucose at pH 7.4).
MC-9 cells (0.39 ml at 7.5×10^6 cells/ml) were preincubated with dimethylsulfoxide (DMSO) vehicle with or without test compound (1 ul) for 4 minutes then incubated for 5 minutes with [^14 C] arachidonic acid (Amersham, 59 Ci/mole) at a 9 uM final concentration, and A23187 (Calbiochem) at a 1 uM final concentration was added in 10 ul of water:ethanol (9:1). The reaction was stopped by addition of methanol (0.4 ml), and cellular debris was removed by centrifugation. Aliquots (250 ul) of the incubations were run on a Waters two pump HPLC system fitted with a Waters C18, 10 u 8×100 mm u-Bondapak radial compression column and C18 "Guard Pak". The column was initially eluted at 3 ml/min with water:methanol:acetic acid (67:33:0.08) containing 1 mM EDTA adjusted to pH 6.0 with ammonium hydroxide (Pump A). At 4 minutes, a linear gradient to reach 100% methanol (Pump B) at 9 minutes was established. Between 13 and 14 minutes, methanol was exchanged for the initial eluting solvent and by 19 minutes the column had been reequilibrated for the next sample. The effluent was analyzed by a continuous flow radioactivity monitor (model ROMONA-D) interfaced with a Hewlett Packard Lab Automation System for quantitation of radioactive products. These were predominantly leukotriene C4 (LTC4) which eluted at 6 minutes, and 5-hydroxyeicosatetraenoic acid (5-HETE) which eluted at 11 minutes (Musch et. al., supra).

inhibition at 15 µM (5-lipoxygenase [2]; read-out: % Inhibition 5-HETE)	inhibition at 15 µM (5-lipoxygenase [2]; read-out: % Inhibition LTB)	SMILES	inhibition [1]	other results
0%	0%	COc1ccc(C2CC(=O)c3c(cc(OC)c(OC)c3OC)C2(C)C)cc1OC (stereo not drawn) [3-(3,4-dimethoxyphenyl)-3,4-dihydro-6,7,8-trimethoxy-4,4-dimethyl-1(2H)naphthalenone]	–	inhibition at 10 µM [1]: 1%
0%	0%	COc1cc(OC)c2c(c1)C(C)(C)C(c1ccc(OC)c(OC)c1)CC2N (stereo not drawn)	0%	–
42%	–	COc1ccc2c(c1)C(C)(C)C(c1ccc(OC)c(OC)c1)CC2=O (stereo not drawn)	28%	–
74%	–	CON=C1CC(c2ccc(OC)c(OC)c2)C(C)(C)c2cc(OC)ccc21 (stereo not drawn)	0%	–

The next lines start with the compound.

SMILES	inhibition at 15 µM (5-lipoxygenase [2]; read-out: % Inhibition 5-HETE)	inhibition at 15 µM (5-lipoxygenase [2]; read-out: % Inhibition LTB)	inhibition [1]	other results
COc1cc(OC)c2c(c1)C(C)(C)C(c1ccc(OC)c(OC)c1)CC2 (stereo not drawn)	–	–	–	inhibition at 5 µM (5-lipoxygenase [3]; read-out: % Inhibition 5-HETE): 35%; inhibition at 5 µM (5-lipoxygenase [3]; read-out: % Inhibition LTC4): 53%; inhibition at 50 µM [1]: 5%
CC1(C)c2cc(O)cc(O)c2CCC1c1ccc(O)c(O)c1 (stereo not drawn)	–	–	–	inhibition at 5 µM (5-lipoxygenase [3]; read-out: % Inhibition 5-HETE): 55%; inhibition at 5 µM (5-lipoxygenase [3]; read-out: % Inhibition LTC4): 52%; inhibition at 10 µM [1]: 16%
COc1cc(OC)c2c(c1)C(C)(C)C(c1ccc(OC)c(OC)c1)CC2NC(C)=O (stereo not drawn)	0%	4%	11%	–
COc1cc(OC)c2c(c1)C(C)(C)C(c1ccc(OC)c(OC)c1)CC2O (stereo not drawn)	–	–	–	inhibition at 5 µM (5-lipoxygenase [3]; read-out: % Inhibition 5-HETE): 5%; inhibition at 5 µM (5-lipoxygenase [3]; read-out: % Inhibition LTC4): 32%
COc1cc(OC)c2c(c1)C(C)(C)C(c1ccc(OC)c(OC)c1)CC(C)(C)C2=O (stereo not drawn) [drawing 90 [X=O; W=CH3; J=CH3]]	54%	–	25%	–
CC1(C)c2cc(O)cc(O)c2C(=O)CC1c1ccc(O)c(O)c1 (stereo not drawn) [drawing 79 [R3/R4=O; E,G,P,L=OH; J=H; db no]]	–	–	–	inhibition at 2 µM (5-lipoxygenase [3]; dose 2 μm, read-out: % Inhibition 5-HETE): 0%; inhibition at 50 µM [1]: 67%
COc1cc(OC)c2c(c1)C(C)(C)C(c1ccc(OC)c(OC)c1)CC2(C)O (stereo not drawn)	–	–	–	inhibition at 5 µM (5-lipoxygenase [3]; read-out: % Inhibition 5-HETE): 0%; inhibition at 5 µM (5-lipoxygenase [3]; read-out: % Inhibition LTC4): 8%
COc1cc(OC)c2c(c1)C(C)(C)C(c1ccc(OC)c(OC)c1)C(C=O)C2=O (stereo not drawn)	16%	0%	19%	–
COc1cc(OC)c2c(c1)C(C)(C)C(c1ccc(OC)c(OC)c1)C(C)C2=NO (stereo not drawn)	31%	–	–	inhibition at 10 µM [1]: 13%
COc1cc(OC)c2c(c1)C(C)(C)C(c1ccccc1)CC2=O (stereo not drawn)	0%	0%	–	inhibition at 10 µM [1]: 6%
COc1cc(OC)cc(C2=CC(=O)c3c(cc(OC)c(OC)c3OC)C2(C)C)c1 [drawing 84 [K=OCH3]]	–	–	21%	–
